Experiment [1] has as its target T1, rat CB2 (Rattus norvegicus, UniProt Q9QZN9).
T1 sequence (Q9QZN9 1-360): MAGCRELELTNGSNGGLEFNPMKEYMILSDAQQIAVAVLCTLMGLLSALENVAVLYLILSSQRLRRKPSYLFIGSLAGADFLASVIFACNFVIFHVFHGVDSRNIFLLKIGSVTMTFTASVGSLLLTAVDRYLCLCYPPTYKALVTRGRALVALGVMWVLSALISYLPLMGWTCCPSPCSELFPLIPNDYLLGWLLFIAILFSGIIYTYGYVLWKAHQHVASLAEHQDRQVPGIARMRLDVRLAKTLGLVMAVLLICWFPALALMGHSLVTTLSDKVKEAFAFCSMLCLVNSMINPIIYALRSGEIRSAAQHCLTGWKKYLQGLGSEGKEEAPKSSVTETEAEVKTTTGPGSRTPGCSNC
Briefly: rat CB2 cyclase functional assay (HitHunter cAMP). On the set-up: expressed in transfected cells; host or cells: HEK. As to conditions: HEK cells, forskolin 18 μM. The class given is cell-based. The procedure: The cyclase functional assays were performed using the HitHunter™ cAMP assay kit from DiscoveRx (Fremont, Calif.) according to vendor's protocol. Briefly, HEK cells expressing CB2 or CB1 receptors (rat or human) were detached using cell dissociation buffer (Invitrogen, Carlsbad, Calif.), dispersed and placed in suspension at 10,000 cells per well in 96 well plates prior to the assay. Cell suspensions were incubated at 37° C. for 20 min with variable concentrations of test ligands and or 10 μM CP 55,940-positive control in the presence of a fixed concentration of forskolin (18 μM for rat CB2 and 37 μM for rat CB1) in Dulbescco's phosphate-buffered saline (Invitrogen, Carlsbad, Calif.) supplemented with bovine serum albumin (0.01% final concentration). The reactions were terminated by the addition of lysis buffer and the luminescence was detected following the procedure according to the manufacturer's instructions. EC50 values were calculated using sigmoidal dose-response curve fitting from Prism (GraphPad).

Experiment [2] addresses T2, human CB2 receptors (Homo sapiens, UniProt P34972).
T2 construct: expressed in transfected cells; host or cells: HEK293
In words: human CB2 radioligand binding assay ([3H]CP 55,940 competition). As to conditions: HEK293 membranes, 0.5 nM [3H]CP 55,940. In a few lines: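 Displacement of 0.5 nM [3H]CP 55,940 over 0.01 nM-10 μM test compound, measured on human CB2 membranes from stably transfected HEK293 cells. Incubation 90 min at 30 °C in Tris/EDTA/MgCl2/BSA, pH 7.4, then filter-bound radioactivity counted; 10 μM unlabeled CP 55,940 defined nonspecific binding.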

Experiment [3] concerns the target T1, rat CB2. In words: rat CB2 radioligand binding assay ([3H]CP 55,940 competition). On the set-up: expressed in transfected cells; host or cells: HEK293. As to conditions: HEK293 membranes, 0.5 nM [3H]CP 55,940. The gist of the method: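 Competition binding against 0.5 nM [3H]CP 55,940 (pH 7.4 buffer with 0.5 mg/mL BSA, 30 °C, 45 min), with displacers spanning 0.01 nM–10 μM at five concentrations. Receptor source: stably transfected HEK293 membranes, 20 μg/well. Nonspecific binding defined by 10 μM unlabeled CP 55,940; readout by filtration and counting.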

For experiment [4], the target named is T3, Rat CB1 (Rattus norvegicus, UniProt P20272).
T3 construct: expressed in transfected cells; host or cells: HEK
Briefly: rat CB1 cyclase functional assay (HitHunter cAMP). In kind it is cell-based. Conditions: HEK cells, forskolin 37 μM. The gist of the method:
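HEK cells expressing rat CB1 or CB2, 10,000 cells/well, incubated 20 min at 37° C with test ligands plus forskolin (37 μM for CB1, 18 μM for CB2) in DPBS with 0.01% BSA. cAMP read by enzyme-complementation luminescence after lysis; EC50 from sigmoidal dose-response fit.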

Read-outs that look alike come from different tables or passages of the source. Bounds are passed on as bounds.

T2 sequence (P34972 whole entry): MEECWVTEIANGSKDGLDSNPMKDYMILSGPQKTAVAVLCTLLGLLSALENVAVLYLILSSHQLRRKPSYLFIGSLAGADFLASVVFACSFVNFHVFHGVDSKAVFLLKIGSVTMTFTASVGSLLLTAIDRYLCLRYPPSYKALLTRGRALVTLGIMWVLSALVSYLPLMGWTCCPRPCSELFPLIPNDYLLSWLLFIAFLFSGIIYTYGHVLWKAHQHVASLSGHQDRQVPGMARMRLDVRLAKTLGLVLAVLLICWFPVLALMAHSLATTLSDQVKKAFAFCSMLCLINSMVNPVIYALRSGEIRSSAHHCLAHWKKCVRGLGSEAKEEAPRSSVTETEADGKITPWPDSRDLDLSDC
T3 sequence (P20272 whole entry): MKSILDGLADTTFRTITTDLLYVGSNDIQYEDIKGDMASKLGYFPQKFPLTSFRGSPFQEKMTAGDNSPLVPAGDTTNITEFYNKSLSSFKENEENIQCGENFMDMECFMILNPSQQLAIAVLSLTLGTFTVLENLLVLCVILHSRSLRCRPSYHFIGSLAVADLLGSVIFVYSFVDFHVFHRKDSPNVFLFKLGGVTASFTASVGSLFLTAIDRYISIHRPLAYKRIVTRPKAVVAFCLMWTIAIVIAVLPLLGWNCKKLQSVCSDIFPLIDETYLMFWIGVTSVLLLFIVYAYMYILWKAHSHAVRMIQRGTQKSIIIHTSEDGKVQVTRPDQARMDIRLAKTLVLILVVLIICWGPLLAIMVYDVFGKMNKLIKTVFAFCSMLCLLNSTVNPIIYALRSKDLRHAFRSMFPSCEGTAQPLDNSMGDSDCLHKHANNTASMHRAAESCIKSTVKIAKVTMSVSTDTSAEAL

`Cn1c(C(C)(C)C)c/c(=N\C(=O)c2cc(C(F)(F)F)ccc2OC[C@@H]2C=CCO2)n1C[C@H]1CCCO1` [Example 25, N-{(3E)-5-tert-1-methyl-2-[(2R)-tetrahydrofuran-2-ylmethyl]-1,2-dihydro-3H-pyrazol-3-ylidene}-2-[(2S)-2,5-dihydrofuran-2-ylmethoxy]-5-(trifluoromethyl)benzamide]: the concentration giving a half-maximal response (EC50) (usually the concentration at which the effect is half-maximal) was determined as 0.3 nM in experiment [1] (read-out: rat CB2 cyclase (EC50)) and 531 nM in experiment [4] (read-out: Rat CB1 cyclase (EC50)). Moreover, the inhibitory constant (Ki) – broadly, a measure of affinity in units of concentration, obtained from inhibition or displacement – in experiment [2] (read-out: human CB2 (Ki)) was 31 nM; in experiment [3] (read-out: rat CB2 (Ki)), 20 nM.
For `Cn1c(C(C)(C)C)c/c(=N\C(=O)c2cc(C(F)(F)F)ccc2OC[C@@H]2CCCN2)n1C[C@H]1CCCO1` [Example 62, N-{(3E)-5-tert-butyl-1-methyl-2-[(2R)-tetrahydrofuran-2-ylmethyl]-1,2-dihydro-3 H-pyrazol-3-ylidene}-2-[(2S)-pyrrolidin-2-ylmethoxy]-5-(trifluoromethyl)benzamide], the EC50 in experiment [1] (rat CB2 cyclase (EC50, nM)) is 0.28 nM; in experiment [4] (Rat CB1 cyclase (EC50, nM)) it was more than 27000 nM. Moreover, the Ki in experiment [2] (human CB2 (Ki, nM)) came out at 82 nM; in experiment [3] (rat CB2 (Ki, nM)), 21 nM.
For the molecule `Cn1c(C(C)(C)C)c/c(=N\C(=O)c2cc(C(F)(F)F)ccc2OC[C@@H]2CCCO2)n1CC1CC1` [Example 27, N-[(3E)-5-tert-butyl-2-(cyclopropylmethyl)-1-methyl-1,2-dihydro-3H-pyrazol-3-ylidene]-2-[(2S)-tetrahydrofuran-2-ylmethoxy]-5-(trifluoromethyl)benzamide], the concentration giving a half-maximal response (EC50) came out at 0.2 nM in experiment [1] (rat CB2 cyclase (EC50, nM)) and 3370 nM in experiment [4] (Rat CB1 cyclase (EC50, nM)). Further, the inhibitory constant (Ki) in experiment [2] (human CB2 (Ki, nM)) worked out at 23 nM; in experiment [3] (rat CB2 (Ki, nM)) it was 9.4 nM.
For the molecule `CN1CC[C@H]1COc1ccc(C(F)(F)F)cc1C(=O)/N=c1\oc(C(C)(C)C)cn1C[C@H]1CCCO1` [Example 74, N-[(2Z)-5-tert-butyl-3-[(2R)-tetrahydrofuran-2-ylmethyl]-1,3-oxazol-2(3 H)-ylidene]-2-{[(2S)-1-methylazetidin-2-yl]methoxy}-5-(trifluoromethyl)benzamide], the EC50 in experiment [1] (rat CB2 cyclase (EC50, nM)) turned out to be 0.42 nM; in experiment [4] (Rat CB1 cyclase (EC50, nM)) it was 3350 nM. For the same molecule, the Ki in experiment [2] (human CB2 (Ki, nM)) was 188 nM; in experiment [3] (rat CB2 (Ki, nM)), 96 nM.
In the case of `CCCCn1nc(C(C)(C)C)s/c1=N\C(=O)c1cc(C(F)(F)F)ccc1OC[C@@H]1CCCN1C` [Example 29, N-[(2Z)-3-butyl-5-tert-butyl-1,3,4-thiadiazol-2(3H)-ylidene]-2-{[(2S)-1-methylpyrrolidin-2-yl]methoxy}-5-(trifluoromethyl)benzamide], the concentration for a half-maximal effect (EC50) in experiment [1] (rat CB2 cyclase (EC50, nM)) was determined as 3.7 nM; in experiment [4] (Rat CB1 cyclase (EC50, nM)), 1680 nM. Further, the Ki in experiment [2] (human CB2 (Ki, nM)) was found to be 14 nM; in experiment [3] (rat CB2 (Ki, nM)), 11 nM.
As to `CCOCCOCCOc1ccc(C(F)(F)F)cc1C(=O)/N=c1\cc(C(C)(C)C)n(C)n1C[C@H]1CCCO1` [Example 47, N-{(3E)-5-tert-butyl-1-methyl-2-[(2R)-tetrahydrofuran-2-ylmethyl]-1,2-dihydro-3H-pyrazol-3-ylidene}-2-[2-(2-ethoxyethoxy)ethoxy]-5-(trifluoromethyl)benzamide], the EC50 in experiment [1] (rat CB2 cyclase (EC50, nM)) was 5.6 nM; in experiment [4] (Rat CB1 cyclase (EC50, nM)) it was more than 27000 nM. In addition, the inhibition constant Ki in experiment [2] (human CB2 (Ki, nM)) turned out to be 70 nM; in experiment [3] (rat CB2 (Ki, nM)), 89 nM.
In the same order, the values of `Cn1c(C(C)(C)C)c/c(=N\C(=O)c2cc(C(F)(F)F)ccc2OCCN2CCCC2=O)n1C[C@H]1CCCO1` [Example 15] are 1.4 nM, more than 27000 nM, 193 nM and 203 nM.
On to `Cn1c(C(C)(C)C)c/c(=N\C(=O)c2cc(C(F)(F)F)ccc2NC[C@H]2CCCO2)n1C[C@H]1CCCO1` [Example 23, N-{(3E)-5-tert-butyl-1-methyl-2-[(2R)-tetrahydrofuran-2-ylmethyl]-1,2-dihydro-3H-pyrazol-3-ylidene}-2-{[(2R)-tetrahydrofuran-2-ylmethyl]amino}-5-(trifluoromethyl)benzamide], for which the EC50 in experiment [1] (rat CB2 cyclase (EC50, nM)) came out at 0.37 nM; in experiment [4] (Rat CB1 cyclase (EC50, nM)), 3420 nM. In addition, the Ki came to 4.7 nM in experiment [2] (human CB2 (Ki, nM)) and 2.8 nM in experiment [3] (rat CB2 (Ki, nM)).
In the same order, the values of `Cn1c(C(C)(C)C)c/c(=N\C(=O)c2cc(C(F)(F)F)ccc2OC[C@@H]2CCCO2)n1Cc1ccc(F)cc1` [Example 30, N-[(3E)-5-tert-butyl-2-(4-fluorobenzyl)-1-methyl-1,2-dihydro-3H-pyrazol-3-ylidene]-2-[(2S)-tetrahydrofuran-2-ylmethoxy]-5-(trifluoromethyl)benzamide] are 2.5 nM, more than 27000 nM, 28 nM and 23 nM.
In the case of `Cn1c(C(C)(C)C)c/c(=N\C(=O)c2cc(C(F)(F)F)ccc2OCc2cccnc2)n1C[C@H]1CCCO1` [Example 43, N-{(3E)-5-tert-butyl-1-methyl-2-[(2R)-tetrahydrofuran-2-ylmethyl]-1,2-dihydro-3H-pyrazol-3-ylidene}-2-(pyridin-3-ylmethoxy)-5-(trifluoromethyl)benzamide], the EC50 in experiment [1] (rat CB2 cyclase (EC50, nM)) is 2.4 nM; in experiment [4] (Rat CB1 cyclase (EC50, nM)) it was more than 27000 nM. Also, the inhibition constant Ki in experiment [2] (human CB2 (Ki, nM)) was determined as 220 nM; in experiment [3] (rat CB2 (Ki, nM)), 56 nM.
With `Cn1c(C(C)(C)C)c/c(=N\C(=O)c2cc(C(F)(F)F)ccc2OC[C@@H]2CCN2)n1C[C@H]1CCCO1` [Example 2, 2-[(2S)-azetidin-2-ylmethoxy]-N-{(3E)-5-tert-butyl-1-methyl-2-[(2R)-tetrahydrofuran-2-ylmethyl]-1,2-dihydro-3H-pyrazol-3-ylidene}-5-(trifluoromethyl)benzamide], the EC50 in experiment [1] (rat CB2 cyclase (EC50, nM)) was determined as 0.77 nM; in experiment [4] (Rat CB1 cyclase (EC50, nM)), 11200 nM. In addition, the inhibition constant (Ki) in experiment [2] (human CB2 (Ki, nM)) is more than 1000 nM; in experiment [3] (rat CB2 (Ki, nM)) it was 195 nM.
On to `CC1CCC(COc2ccc(C(F)(F)F)cc2C(=O)N=c2cc(C(C)(C)C)n(C)n2CC2CCCO2)O1` (single isomer, unassigned) [Example 36], for which the concentration for a half-maximal effect (EC50) in experiment [1] (rat CB2 cyclase (EC50, nM)) was 2.7 nM; in experiment [4] (Rat CB1 cyclase (EC50, nM)), 8410 nM. Further, the Ki amounted to 74 nM in experiment [2] (human CB2 (Ki, nM)) and 108 nM in experiment [3] (rat CB2 (Ki, nM)).
Take `Cn1c(C(C)(C)C)c/c(=N\C(=O)c2cc(C(F)(F)F)ccc2OC[C@@H]2CCC(=O)N2)n1C[C@H]1CCCO1` [Example 12, N-{(3E)-5-tert-butyl-1-methyl-2-[(2R)-tetrahydrofuran-2-ylmethyl]-1,2-dihydro-3H-pyrazol-3-ylidene}-2-{[(2S)-5-oxopyrrolidin-2-yl]methoxy}-5-(trifluoromethyl)benzamide]: the EC50 is 0.79 nM in experiment [1] (rat CB2 cyclase (EC50, nM)) and more than 27000 nM in experiment [4] (Rat CB1 cyclase (EC50, nM)). Besides, the inhibition constant (Ki) is 99 nM in experiment [2] (human CB2 (Ki, nM)) and 46 nM in experiment [3] (rat CB2 (Ki, nM)).
Regarding `Cn1c(C(C)(C)C)c/c(=N\C(=O)c2cc(C(F)(F)F)ccc2NC[C@@H]2CCCO2)n1C[C@H]1CCCO1` [Example 21, N-{(3E)-5-tert-butyl-1-methyl-2-[(2R)-tetrahydrofuran-2-ylmethyl]-1,2-dihydro-3H-pyrazol-3-ylidene}-2-{[(2S)-tetrahydrofuran-2-ylmethyl]amino}-5-(trifluoromethyl)benzamide], the concentration giving a half-maximal response (EC50) in experiment [1] (rat CB2 cyclase (EC50, nM)) was 0.19 nM; in experiment [4] (Rat CB1 cyclase (EC50, nM)), 901 nM. Besides, the inhibition constant (Ki) was 0.9 nM in experiment [2] (human CB2 (Ki, nM)) and 0.6 nM in experiment [3] (rat CB2 (Ki, nM)).
As to `CCCCn1nc(C(C)(C)C)s/c1=N\C(=O)c1cc(C(F)(F)F)ccc1OCC1CCCCN1C` (stereo not drawn) [Example 7, N-[(2Z)-3-butyl-5-tert-butyl-1,3,4-thiadiazol-2(3H)-ylidene]-2-[(1-methylpiperidin-2-yl)methoxy]-5-(trifluoromethyl)benzamide], the 50% effective concentration (EC50) came out at 2.9 nM in experiment [1] (rat CB2 cyclase (EC50, nM)) and 1060 nM in experiment [4] (Rat CB1 cyclase (EC50, nM)). Moreover, the inhibition constant (Ki) in experiment [2] (human CB2 (Ki, nM)) was 2.5 nM; in experiment [3] (rat CB2 (Ki, nM)), 2.5 nM.

(Values after patent US8188135B2, “Compounds as cannabinoid receptor ligands” (priority 2008, dated 2012).)
